From ChEMBL document CHEMBL4680379, “Structure-based Discovery of Cell-Potent Peptidomimetic Inhibitors for Protein N-Terminal Methyltransferase 1” (ACS Med Chem Lett, 2021)
Blank lines part the entries; values can stand above or below the molecule they belong to. The source made the active and inactive calls. No cut-off for these calls is given here.

Legend:
Trypsin = Trypsin (Homo sapiens, UniProt P07477+P07478+P35030); test: Stability of compound assessed as trypsin (unknown origin) mediated compound hydrolysis at 10 uM incubated for 1 hr by MALDI-MS analysis; format: ADME, protein assay
[1] = target: T1, Histone-lysine N-methyltransferase SETD7 (Homo sapiens) (UniProt Q8WTS6); test: Inhibition of His-tagged SETD7 (unknown origin) at 100 uM using H3-21 peptide as substrate preincubated for 10 mins in presence of SAM followed by substrate addition by SAHH-coupled fluorescence assay relative to control
T1 sequence (whole entry): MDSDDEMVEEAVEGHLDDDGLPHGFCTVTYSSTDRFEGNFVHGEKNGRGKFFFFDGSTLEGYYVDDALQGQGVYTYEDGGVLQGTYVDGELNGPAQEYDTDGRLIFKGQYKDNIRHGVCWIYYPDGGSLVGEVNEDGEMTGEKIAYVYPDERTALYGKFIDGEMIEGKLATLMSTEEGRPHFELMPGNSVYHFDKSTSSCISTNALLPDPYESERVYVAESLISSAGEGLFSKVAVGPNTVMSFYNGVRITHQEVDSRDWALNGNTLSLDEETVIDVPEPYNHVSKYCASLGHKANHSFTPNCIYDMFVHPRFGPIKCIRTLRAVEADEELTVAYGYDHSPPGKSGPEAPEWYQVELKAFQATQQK

Trypanosoma brucei = test: Inhibition of Trypanosoma brucei N-terminal His6-tagged PRMT7 expressed in Escherichia coli BL21-CodonPlus(DE3)-RIL at 100 uM using H4-21 peptide as substrate preincubated for 10 mins in presence of SAM followed by substrate addition by SAHH-coupled fluorescence assay relative to control
[2] = Selectivity for recombinant human N-terminal His6-tagged NTMT1 (1 to 222 residues) expressed in Escherichia coli BL21-CodonPlus(DE3)-RIL over Trypanosoma brucei N-terminal His6-tagged PRMT7 expressed in Escherichia coli BL21-CodonPlus(DE3)-RIL
[3] = target: Protein arginine N-methyltransferase 3 (Homo sapiens) (UniProt O60678); test: Inhibition of PRMT3 (unknown origin) at 100 uM relative to control
Sequence of Protein arginine N-methyltransferase 3 (Homo sapiens) (O60678 2-531 limits assumed): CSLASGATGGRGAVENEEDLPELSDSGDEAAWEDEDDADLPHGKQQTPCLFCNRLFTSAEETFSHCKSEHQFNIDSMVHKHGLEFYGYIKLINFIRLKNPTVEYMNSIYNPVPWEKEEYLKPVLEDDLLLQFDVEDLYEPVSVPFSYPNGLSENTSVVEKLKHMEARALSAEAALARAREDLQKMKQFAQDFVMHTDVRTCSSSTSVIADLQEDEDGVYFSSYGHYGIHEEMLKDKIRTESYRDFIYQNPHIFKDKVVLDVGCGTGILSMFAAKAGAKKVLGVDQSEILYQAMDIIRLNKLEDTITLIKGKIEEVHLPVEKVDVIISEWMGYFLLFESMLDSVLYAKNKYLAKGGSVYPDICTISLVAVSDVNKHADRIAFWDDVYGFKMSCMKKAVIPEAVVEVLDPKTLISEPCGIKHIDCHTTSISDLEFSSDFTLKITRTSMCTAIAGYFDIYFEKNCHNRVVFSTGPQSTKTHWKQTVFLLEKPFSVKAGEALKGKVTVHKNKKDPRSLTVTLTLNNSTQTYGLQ

[4] = target: T2, N-terminal Xaa-Pro-Lys N-methyltransferase 1 (Homo sapiens, UniProt Q9BV86); test: Inhibition of NTMT1 in human HT29 cells assessed as decrease in me3-RCC1 level incubated for 3 days by Western blot analysis; format: cell-based, HT-29
T2 sequence (Q9BV86 whole entry): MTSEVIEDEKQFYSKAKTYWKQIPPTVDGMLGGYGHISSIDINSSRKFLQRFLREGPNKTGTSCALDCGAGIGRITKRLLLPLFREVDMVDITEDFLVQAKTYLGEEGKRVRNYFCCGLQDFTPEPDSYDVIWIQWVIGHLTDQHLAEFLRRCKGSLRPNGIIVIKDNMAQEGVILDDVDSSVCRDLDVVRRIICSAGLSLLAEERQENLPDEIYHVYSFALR

[5] = target: T3, N-terminal Xaa-Pro-Lys N-methyltransferase 1 (Homo sapiens) (UniProt Q9BV86); test: Inhibition of NTMT1 in human HCT116 cells assessed as decrease in me3-SPK level at 1 mM incubated for 3 days by Western blot analysis relative to control; format: cell-based; details: HCT-116, time 3.0 day
T3 sequence (whole entry): T2 sequence (Q9BV86 whole entry)

[6] = target: T3, N-terminal Xaa-Pro-Lys N-methyltransferase 1 (Homo sapiens); test: Inhibition of NTMT1 in human HT29 cells assessed as decrease in me3-RCC1 level at 100 uM incubated for 3 days by Western blot analysis; format: cell-based; details: HT-29, time 3.0 day
[7] = target: T4, Histone-lysine N-methyltransferase EHMT2 (Homo sapiens) (UniProt Q96KQ7); test: Inhibition of human His-tagged G9a (913 to 1193 residues) expressed in Escherichia coli BL21-CodonPlus(DE3)-RIL at 100 uM using H3-21 peptide as substrate preincubated for 10 mins in presence of SAM followed by substrate addition by SAHH-coupled fluorescence assay relative to control
T4 sequence (whole entry): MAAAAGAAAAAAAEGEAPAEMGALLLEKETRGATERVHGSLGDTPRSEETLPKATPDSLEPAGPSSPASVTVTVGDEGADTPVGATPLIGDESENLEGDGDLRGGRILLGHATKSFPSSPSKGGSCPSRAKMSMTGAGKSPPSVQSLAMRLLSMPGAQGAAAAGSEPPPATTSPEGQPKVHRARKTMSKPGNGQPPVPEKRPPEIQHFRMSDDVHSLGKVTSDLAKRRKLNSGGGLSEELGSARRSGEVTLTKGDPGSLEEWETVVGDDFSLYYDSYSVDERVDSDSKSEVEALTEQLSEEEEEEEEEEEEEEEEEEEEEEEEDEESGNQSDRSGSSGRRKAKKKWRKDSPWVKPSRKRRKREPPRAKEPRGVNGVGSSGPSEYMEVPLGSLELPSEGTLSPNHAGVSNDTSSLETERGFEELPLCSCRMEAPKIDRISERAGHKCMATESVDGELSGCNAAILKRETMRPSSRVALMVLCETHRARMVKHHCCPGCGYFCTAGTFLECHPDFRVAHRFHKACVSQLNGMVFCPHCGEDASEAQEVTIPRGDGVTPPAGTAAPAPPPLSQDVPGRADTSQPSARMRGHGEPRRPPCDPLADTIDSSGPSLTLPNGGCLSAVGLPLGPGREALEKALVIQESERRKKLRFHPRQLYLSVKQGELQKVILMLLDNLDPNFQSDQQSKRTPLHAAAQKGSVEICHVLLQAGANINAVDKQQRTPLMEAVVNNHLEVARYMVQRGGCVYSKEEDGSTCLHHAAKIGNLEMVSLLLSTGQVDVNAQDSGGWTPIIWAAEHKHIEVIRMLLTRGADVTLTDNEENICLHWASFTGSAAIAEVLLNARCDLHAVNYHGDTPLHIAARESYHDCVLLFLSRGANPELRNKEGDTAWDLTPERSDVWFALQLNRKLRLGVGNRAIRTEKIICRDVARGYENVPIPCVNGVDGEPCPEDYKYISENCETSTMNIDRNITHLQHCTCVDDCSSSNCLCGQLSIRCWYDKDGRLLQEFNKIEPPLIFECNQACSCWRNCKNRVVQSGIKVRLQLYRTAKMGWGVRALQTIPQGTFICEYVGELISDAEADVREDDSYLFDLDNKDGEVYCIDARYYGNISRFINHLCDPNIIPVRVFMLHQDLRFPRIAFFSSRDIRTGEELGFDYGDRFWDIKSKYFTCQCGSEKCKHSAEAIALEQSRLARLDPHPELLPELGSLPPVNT

Homo sapiens [8] = organism: Homo sapiens; test: Selectivity for recombinant human N-terminal His6-tagged NTMT1 (1 to 222 residues) expressed in Escherichia coli BL21-CodonPlus(DE3)-RIL over PRMT1 (unknown origin)
[9] = target: T3, N-terminal Xaa-Pro-Lys N-methyltransferase 1 (Homo sapiens); test: Inhibition of NTMT1 in human HCT116 cells assessed as decrease in me3-SPK level at 100 uM incubated for 3 days by Western blot analysis relative to control; format: cell-based; details: HCT-116, time 3.0 day
HCT-116 [10] = test: Cytotoxicity against human HCT116 cells assessed as reduction in cell viability up to 1 mM incubated for 48 hrs by resazurin-dye based alamar blue assay; details: hct-116, 48 h
[11] = target: T2, N-terminal Xaa-Pro-Lys N-methyltransferase 1; test: Inhibition of NTMT1 in human HCT116 cells assessed as decrease in me3-RCC1 level incubated for 3 days by Western blot analysis; format: cell-based, HCT-116
HCT-116 [12] = test: Cytotoxicity against human HCT116 cells assessed as reduction in cell viability up to 1 mM incubated for 24 hrs by resazurin-dye based alamar blue assay; details: hct-116, 24 h
HT-29 [13] = test: Cytotoxicity against human HT29 cells assessed as reduction in cell viability up to 1 mM incubated for 48 hrs by resazurin-dye based alamar blue assay; details: ht-29, 48 h
HT-29 [14] = test: Cytotoxicity against human HT29 cells assessed as reduction in cell viability up to 1 mM incubated for 72 hrs by resazurin-dye based alamar blue assay; details: ht-29, 72 h
Homo sapiens [15] = organism: Homo sapiens; test: Selectivity for recombinant human N-terminal His6-tagged NTMT1 (1 to 222 residues) expressed in Escherichia coli BL21-CodonPlus(DE3)-RIL over PRMT3 (unknown origin)
Homo sapiens [16] = organism: Homo sapiens; test: Selectivity for recombinant human N-terminal His6-tagged NTMT1 (1 to 222 residues) expressed in Escherichia coli BL21-CodonPlus(DE3)-RIL over human His-tagged G9a (913 to 1193 residues) expressed in Escherichia coli BL21-CodonPlus(DE3)-RIL
HCT-116 [17] = test: Cytotoxicity against human HCT116 cells assessed as reduction in cell viability up to 1 mM incubated for 72 hrs by resazurin-dye based alamar blue assay; details: hct-116, 72 h
[18] = target: T3, N-terminal Xaa-Pro-Lys N-methyltransferase 1 (Homo sapiens); test: Inhibition of NTMT1 in human HCT116 cells assessed as decrease in me3-SPK level at 300 uM incubated for 3 days by Western blot analysis relative to control; format: cell-based; details: HCT-116, time 3.0 day
Homo sapiens [19] = organism: Homo sapiens; test: Selectivity for recombinant human N-terminal His6-tagged NTMT1 (1 to 222 residues) expressed in Escherichia coli BL21-CodonPlus(DE3)-RIL over SAHH (unknown origin)
HT-29 [20] = test: Cytotoxicity against human HT29 cells assessed as reduction in cell viability up to 1 mM incubated for 24 hrs by resazurin-dye based alamar blue assay; details: ht-29, 24 h
[21] = target: Adenosylhomocysteinase (Homo sapiens) (UniProt P23526); test: Inhibition of SAHH (unknown origin) at 100 uM relative to control
Sequence of Adenosylhomocysteinase (Homo sapiens) (P23526 2-432 limits assumed): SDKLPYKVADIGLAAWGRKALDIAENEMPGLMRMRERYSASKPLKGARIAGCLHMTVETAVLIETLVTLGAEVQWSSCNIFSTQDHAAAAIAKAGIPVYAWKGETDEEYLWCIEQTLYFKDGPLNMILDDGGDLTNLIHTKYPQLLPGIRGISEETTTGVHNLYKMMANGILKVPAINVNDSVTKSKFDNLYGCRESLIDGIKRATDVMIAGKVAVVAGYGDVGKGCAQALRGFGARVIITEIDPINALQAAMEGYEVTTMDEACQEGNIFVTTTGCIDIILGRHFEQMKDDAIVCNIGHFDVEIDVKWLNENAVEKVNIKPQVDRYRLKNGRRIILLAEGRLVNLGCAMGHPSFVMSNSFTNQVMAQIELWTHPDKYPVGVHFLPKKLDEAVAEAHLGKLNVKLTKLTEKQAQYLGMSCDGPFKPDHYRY

[22] = target: Protein arginine N-methyltransferase 1 (Homo sapiens) (UniProt Q99873); test: Inhibition of PRMT1 (unknown origin) at 100 uM using H4-21 peptide as substrate preincubated for 10 mins in presence of SAM followed by substrate addition by SAHH-coupled fluorescence assay relative to control
Sequence of Protein arginine N-methyltransferase 1 (Homo sapiens) (Q99873 whole entry, looked up): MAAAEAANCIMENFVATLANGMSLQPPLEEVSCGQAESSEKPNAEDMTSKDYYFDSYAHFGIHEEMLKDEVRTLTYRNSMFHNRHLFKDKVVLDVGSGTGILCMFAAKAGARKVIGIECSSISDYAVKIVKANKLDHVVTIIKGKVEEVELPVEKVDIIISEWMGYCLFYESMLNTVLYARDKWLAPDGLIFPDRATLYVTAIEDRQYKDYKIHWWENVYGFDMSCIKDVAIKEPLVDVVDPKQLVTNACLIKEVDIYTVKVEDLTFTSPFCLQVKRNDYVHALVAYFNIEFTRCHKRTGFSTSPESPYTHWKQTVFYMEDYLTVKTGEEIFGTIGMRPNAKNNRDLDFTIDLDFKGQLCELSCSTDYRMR

[23] = target: T3, N-terminal Xaa-Pro-Lys N-methyltransferase 1 (Homo sapiens); test: Inhibition of NTMT1 in human HCT116 cells assessed as decrease in me3-RCC1 level at 100 uM incubated for 3 days by Western blot analysis; format: cell-based; details: HCT-116, time 3.0 day
Homo sapiens [24] = organism: Homo sapiens; test: Selectivity for recombinant human N-terminal His6-tagged NTMT1 (1 to 222 residues) expressed in Escherichia coli BL21-CodonPlus(DE3)-RIL over His-tagged SETD7 (unknown origin)
[25] = target: T2, N-terminal Xaa-Pro-Lys N-methyltransferase 1; test: Inhibition of recombinant human N-terminal His6-tagged NTMT1 (1 to 222 residues) expressed in Escherichia coli BL21-CodonPlus(DE3)-RIL using GPKRIA peptide and SAM as substrate pre-incubated for 10 mins in presence of SAM followed by substrate addition by SAHH coupled fluorescence assay

- Stabilty (Trypsin): Stable
Compound: CN(C(=O)[C@H](CCCCN)NC(=O)[C@@H]1CCCN1C(=O)Cc1cccc2ccccc12)[C@@H](CCCNC(=N)N)C(N)=O

- inhibition [1]: < 50%
- inhibition (Trypanosoma brucei): < 50%
- Selectivity ratio [2]: > 300
- inhibition [3]: < 50%
- IC50 [4]: 30 µM
- inhibition [5]: 100%
- inhibition [6]: Active
- inhibition [7]: < 50%
- Selectivity ratio (Homo sapiens [8]): > 300
- inhibition [9]: 61%
- IC50 [11]: 100 µM
- Selectivity ratio (Homo sapiens [15]): > 300
- Selectivity ratio (Homo sapiens [16]): > 300
- inhibition [18]: 90%
- Selectivity ratio (Homo sapiens [19]): > 300
- inhibition [21]: < 50%
- inhibition [22]: < 50%
- inhibition [23]: Active
- Selectivity ratio (Homo sapiens [24]): > 300
Compound: NCCCC[C@H](NC(=O)[C@@H]1CCCN1C(=O)Cc1cccc2ccccc12)C(=O)Nc1ccccc1C(N)=O
- Activity (HCT-116 [10]): Non-Toxic
- Activity (HCT-116 [12]): Non-Toxic
- Activity (HT-29 [13]): Non-Toxic
- Activity (HT-29 [14]): Non-Toxic
- Activity (HCT-116 [17]): Non-Toxic
- Activity (HT-29 [20]): Non-Toxic

- IC50 [25]: 4.2 µM
Compound: NCCCC[C@H](NC(=O)[C@@H]1CCCN1C(=O)Cc1cccc2ccccc12)C(=O)N[C@@H](CCC(=O)O)C(N)=O

- inhibition [5]: 90%
- inhibition [9]: 10%
- IC50 [25]: 0.13 µM
- inhibition [18]: 57%
Compound: NCCCC[C@H](NC(=O)[C@@H]1CCCN1C(=O)Cc1cccc2ccccc12)C(=O)Nc1cccc(C(N)=O)c1

- inhibition [5]: 70%
- inhibition [9]: 0%
- IC50 [25]: 0.58 µM
- Stabilty (Trypsin): Stable
- inhibition [18]: 3%
Compound: C[C@@H](C(N)=O)N(C)C(=O)[C@H](CCCCN)NC(=O)[C@@H]1CCCN1C(=O)Cc1cccc2ccccc12
